One assay deals with OsPEPR1. In words: Medium alkalinization of transgenic tobacco cells expressing OsPEPR1. In kind it is cell-based, rice. The text has this: We identified rice homologues of AtPEPR1 in the Rice Annotation Project database (see the website located at www.rapdb.dna.affrc.go.jp). The rice homologues, OsPEPR1 (Os08g0446200) and OsPEPR2 (Os08g0446400), have 60% and 62% amino acid similarities, respectively. The OsPEPR1 has 26 LRRs in the extracellular region, which is the same as AtPEPR1. The OsPEPR2 has a shorter extracellular region with 22 LRRs. Transgenic tobacco cells expressing either OsPEPR1 or OsPEPR2 were created to examine the possibility of receptor binding to monocot peptides. OsPep3a, OsPep3b, OsPep3c, ZmPep1 and ZmPep4a were supplied to suspension cultured transgenic tobacco cells, and medium pH was measured. OsPep3a, OsPep3b, ZmPep1 and ZmPep4a caused medium alkalinization in OsPEPR1 expressing cells with a 1.2 pH unit increase and a half-maximal activity of 0.25 nM.

The test system of assay [1] is Arabidopsis suspension cultured cells. In words: Alkalinization assay with Arabidopsis suspension cultured cells. Type of assay: cell-based, Arabidopsis thaliana. On the procedure:
For the alkalinization assay, cells suspensions are grown in a volume of 40 ml in a 125 ml flask. Tobacco and Arabidopsis cells are typically grown for 3-5 days before use. Tomato cells are typically grown for 4-7 days before use. Soybean cells are generally grown for 3-7 days before use. Preferably, cells are in mid to log or log phase when they are to be used for the alkalinization assay. A 1 ml pipette tip with the end cut off (to prevent clogging of the tip with the cells) is used to aliquot 1 ml of the cells from the suspension into a well in a 24-well culture cluster plate. The flask is swirled between aliquots to ensure that the cells remain evenly dispersed throughout the cell suspension and an roughly equivalent number of cells is provided to each well. The plate(s) are then shaken at 160 rpm for 1 hour. Small aliquots ([…]) of extracted peptide fractions are then added to the wells. After 20 min, the pH of the cell media is measured and recorded.
Alkalinization Assay. Arabidopsis suspension cells were grown with shaking in the dark in 125 mL flasks, using 40 mL NT media as previously described (Pearce et al. Proc. Natl. Acad. Sci. USA 98:12843-12847, 2001). The cells were transferred weekly (2.5 mL) and used for assays 3-5 days after transfer. One mL aliquots of cells were transferred to wells of 24-well culture plates and allowed to equilibrate for one hour while agitated on a rotary shaker at 160 rpm. Aliquots of 1-10 μL from extracts or fractions eluted from HPLC columns were added to cells and the pH of the media was monitored after 20 min.
Alkalinization assay. Medium alkalinization activity of Arabidopsis suspension cultured cells by AtPep1 analogs was analyzed as previously described for systemin (Pearce et al., Science 253:895-897, 1991), RALF (Pearce et al. Proc. Natl. Acad. Sci. USA 98:12843-12847, 2001), HypSys peptides (Pearce and Ryan. J. Biol. Chem. 278:30044-30050, 2003; Pearce et al., Nature 411:817-820, 2001), and AtPep1 (supra). The alkalinization activity of azido-Cys-AtPep1 were carried out after incubation the analog with cells in darkness for 10 min, when the pH was recorded.
Analogs of AtPep1 from the C-terminus of AtPep1 were synthesized and assayed in the alkalinization assay. One mL aliquots of 4 day old Arabidopsis cells were allowed to equilibrate on an orbital shaker at 180 rpm for one hour. A 10 μL aliquot of each peptide solution was added to the cells. Peptide concentrations of 0.25 nM, 2.5 nM, and 25 nM were tested. After 20 min, the pH of the media was recorded.
The 15-mer from the carboxy-terminus of AtPep1 ([…] (SEQ ID NO: 78)) was substituted with alanine at each position to assess which amino acids were necessary for the alkalinizing activity. […] The set of substituted 15-mer peptides was assayed using four-day-old Arabidopsis cells. […] of each peptide (2.5 pmoles) was added to 1 ml of cells to make a final concentration of 2.5 nM. After 20 min, the pH of the media was recorded. The data is the average of three separate experiments.

Assay [2] concerns P. syringae pv. tomato DC3000 (Pst DC3000). In words: Pst DC3000 inoculation of Arabidopsis leaves with peptide pre-infiltration. In kind it is in vivo, Pseudomonas syringae. The following applies: wild type, cfu/cm^2 4 days after infection; AtPep1 10 nM solution. The text has this:
The resistance to P. irregulare requires the JA signaling pathway in Arabidopsis (Staswick et al, Plant J. 15: 747-754, 1998), and AtPep peptides induced PDF1.2, a marker gene for the JA response (Huffaker et al., Proc. Natl. Acad. Sci. USA 103: 10098-10103, Huffaker and Ryan, Proc. Natl. Acad. Sci. USA 104: 10732-10736, 2007). […] In order to examine this possibility, Arabidopsis plants were inoculated with P. syringae pv. tomato DC3000 (Pst DC3000) with or without AtPep1 pre-infiltration. Pst DC3000 was extracted from the infected leaves 4 days after infection and colony forming units (cfu/cm^2) were calculated. […] The reduction of Pst DC3000 growth was also not observed when the double mutant, pepr1-1/pepr2-1, was pre-infiltrated with AtPep1. […] Pre-infiltration of AtPep2-6 also attenuated Pst DC3000 growth to different degrees.
To assess the importance of AtPEPR1 and AtPEPR2 in the resistance to Pst DC3000 after infiltration of AtPep1, T-DNA insertional mutants were inoculated. When 1 μM AtPep1 was infiltrated into leaves one day prior to Pst DC3000 inoculation, the size of the necrotic regions were reduced in both wild type and single mutant lines, pepr1-1 and pepr2-1. […] Similar results were obtained when another set of mutant lines, pepr1-2, pepr2-2 and pepr1-2/pepr2-2, was used.

In assay [3] the target is T1, AtPep1 receptor (At1g73080, AtPEPR1) (Arabidopsis thaliana, UniProt Q9SSL9).
T1 sequence (Q9SSL9 29-1123): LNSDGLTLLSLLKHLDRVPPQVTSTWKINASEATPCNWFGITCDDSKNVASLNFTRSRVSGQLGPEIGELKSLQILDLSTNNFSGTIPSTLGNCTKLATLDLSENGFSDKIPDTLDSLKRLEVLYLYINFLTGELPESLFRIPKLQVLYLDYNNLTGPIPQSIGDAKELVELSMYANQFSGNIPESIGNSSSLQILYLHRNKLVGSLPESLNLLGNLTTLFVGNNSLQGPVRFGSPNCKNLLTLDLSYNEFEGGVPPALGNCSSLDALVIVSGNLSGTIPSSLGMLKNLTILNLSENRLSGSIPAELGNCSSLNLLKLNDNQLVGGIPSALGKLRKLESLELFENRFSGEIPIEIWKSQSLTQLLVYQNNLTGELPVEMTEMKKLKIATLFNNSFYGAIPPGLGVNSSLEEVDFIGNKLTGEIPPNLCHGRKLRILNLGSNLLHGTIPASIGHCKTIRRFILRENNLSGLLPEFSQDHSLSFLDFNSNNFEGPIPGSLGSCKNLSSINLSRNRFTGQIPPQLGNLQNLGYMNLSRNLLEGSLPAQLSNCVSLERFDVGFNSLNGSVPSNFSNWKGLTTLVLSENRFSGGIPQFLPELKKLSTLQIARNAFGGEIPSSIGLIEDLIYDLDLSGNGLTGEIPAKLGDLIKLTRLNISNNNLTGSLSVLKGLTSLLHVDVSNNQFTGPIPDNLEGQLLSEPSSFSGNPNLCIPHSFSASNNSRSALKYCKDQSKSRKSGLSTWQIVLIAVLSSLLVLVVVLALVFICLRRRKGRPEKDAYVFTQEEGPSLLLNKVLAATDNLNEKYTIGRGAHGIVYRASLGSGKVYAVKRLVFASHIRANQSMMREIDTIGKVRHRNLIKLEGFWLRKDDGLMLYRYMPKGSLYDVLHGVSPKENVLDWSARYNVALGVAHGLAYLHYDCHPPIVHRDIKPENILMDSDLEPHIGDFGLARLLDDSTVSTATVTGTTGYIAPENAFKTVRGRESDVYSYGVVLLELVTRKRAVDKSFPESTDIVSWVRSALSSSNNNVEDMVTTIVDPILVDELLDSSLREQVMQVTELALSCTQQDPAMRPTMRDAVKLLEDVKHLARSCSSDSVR
In words: Binding assay of 125I1-Tyr-AtPep1 with Arabidopsis suspension cultured cells.
Protocol: Binding assays. […] The filtered cells were washed three times with 5 mL of cold MS medium containing 3% sucrose, suspended in 1 mL MS medium containing 3% sucrose in a glass test tube, and analyzed for total radioactivity in a gamma-ray counter (Isodata 2020; Isodata Inc., Palatine, Ill.).

For another assay, the target named is T2, AtPEPR1 (Arabidopsis thaliana, UniProt Q9SSL9).
T2 construct: Tobacco cells were transformed with a CaMV-35S-AtPEPR1 gene; expressed in transfected cells; host or cells: tobacco suspension-cultured cells (Agrobacterium-mediated, CaMV 35S promoter)
T2 sequence (Q9SSL9 29-1123): T1 sequence (Q9SSL9 29-1123)
In words: Medium alkalinization of transgenic tobacco cells expressing AtPEPR1. Type of assay: cell-based. The note with it: for change in pH: 2.5 nanomolar. The text has this:
Tobacco cells were transformed with a CaMV-35S-AtPEPR1 gene to determine whether the foreign receptor protein was targeted to the cell surface, where, in response to AtPep1, it would activate intracellular signaling to effect the alkalinization of the medium of the transgenic tobacco cells. Expression of the AtPEPR1 gene was confirmed by RT-PCR analysis of RNA from three independently transformed tobacco cell lines. […] AtPep2-7 was also supplied to the transgenic tobacco cells expressing AtPEPR1.
To clarify whether AtPEPR2 binds to AtPep1, the AtPEPR2 coding region was fused to the CaMV 35S promoter and introduced into tobacco suspension-cultured cells by Agrobacterium. Tobacco cells expressing AtPEPR1 and GUS genes were also created as positive and negative controls, respectively. […] These transgenic lines were analyzed for alkalinizing activity as previously described (Pearce et al., Proc. Natl. Acad. Sci. USA 98, 12843-12847, 2001).
The response to all AtPep peptides in transgenic tobacco cells expressing either AtPEPR1 or AtPEPR2 was analyzed by the medium alkalinization assay.

The mark [4] stands for this setting: Arabidopsis suspension cultured cells, pH of media after 20 min.
Setting [5] is: AtPEPR1 expressing tobacco cells.

The values below come from US8686224B2, “Plant defense signal peptides” (priority 2005, dated 2014).

Non-standard residues stand in square brackets, D forms with d. Residues, ends and D or L forms follow the SMILES beside them. Primed or numbered codes have the meaning given here. No end group written: not given here. *: point of attachment. APDP″ = photoaffinity cross-linker coupled to Cys through a disulfide bond, [N-]=[N+]=Nc1ccc(C(=O)NCCCCNC(=O)CCS*)c(O)c1; Tyr(3-I) = N[C@@H](Cc1ccc(O)c(I)c1)C(=O)O

Chain of OsPEPR1 (as listed by the source): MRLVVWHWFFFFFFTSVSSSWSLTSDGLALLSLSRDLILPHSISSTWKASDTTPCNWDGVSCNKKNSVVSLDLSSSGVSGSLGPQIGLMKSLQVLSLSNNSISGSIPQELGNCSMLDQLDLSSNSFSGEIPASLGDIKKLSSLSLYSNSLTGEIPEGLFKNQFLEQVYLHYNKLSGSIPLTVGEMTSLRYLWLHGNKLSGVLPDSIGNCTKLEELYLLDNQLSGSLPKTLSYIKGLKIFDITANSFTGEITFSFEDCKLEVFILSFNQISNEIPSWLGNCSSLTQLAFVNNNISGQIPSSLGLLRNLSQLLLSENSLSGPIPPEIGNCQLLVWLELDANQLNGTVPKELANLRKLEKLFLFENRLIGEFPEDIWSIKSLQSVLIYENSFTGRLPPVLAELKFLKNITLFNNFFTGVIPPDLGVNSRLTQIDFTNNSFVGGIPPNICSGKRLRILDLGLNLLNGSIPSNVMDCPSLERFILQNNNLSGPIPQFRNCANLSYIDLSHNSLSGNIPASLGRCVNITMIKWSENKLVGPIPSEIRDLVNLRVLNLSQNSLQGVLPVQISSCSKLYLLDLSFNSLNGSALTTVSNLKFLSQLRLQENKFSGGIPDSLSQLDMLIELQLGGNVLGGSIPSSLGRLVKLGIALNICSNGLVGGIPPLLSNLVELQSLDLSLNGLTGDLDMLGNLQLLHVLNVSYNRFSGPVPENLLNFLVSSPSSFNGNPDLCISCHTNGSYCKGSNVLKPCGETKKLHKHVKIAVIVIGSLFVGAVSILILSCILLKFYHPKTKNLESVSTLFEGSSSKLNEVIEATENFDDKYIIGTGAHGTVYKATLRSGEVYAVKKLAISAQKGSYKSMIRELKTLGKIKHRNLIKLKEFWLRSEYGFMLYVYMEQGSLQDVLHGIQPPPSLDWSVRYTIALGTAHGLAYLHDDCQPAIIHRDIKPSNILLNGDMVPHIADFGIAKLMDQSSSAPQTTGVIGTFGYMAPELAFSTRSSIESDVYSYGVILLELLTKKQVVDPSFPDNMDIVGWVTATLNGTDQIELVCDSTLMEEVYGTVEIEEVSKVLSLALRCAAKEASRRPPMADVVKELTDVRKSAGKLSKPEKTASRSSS

For the molecule “VRRRPTTPGRPREGSGGNGGNHH [ZmPep1, VRRRPTTPGRPREGSGGNGGNHH]”, the “medium pH increase” value in the assay with OsPEPR1 was found to be 1.2 pH unit. Besides, the EC50 with OsPEPR1 (read-out: half-maximal activity) is 0.25 nM.

Consider RGKEKVSSGRPGQHN [Peptide 15-mer], for which the “activity at the lowest concentration tested” value in assay [1] (0.25 nM) is “substantial activity”. In addition, the “activity in the alkalinization assay” value in assay [1] (setting [4]) is reported as “nearly as active as the native peptide”.

Turning to “15-mer RGKEKVSSGRPGQHN with Gly at position 9 replaced by Ala; inactive derivative of AtPep1 [Gly to Ala substitution at position 9]”, the “activity in the alkalinization assay” value in assay [1] (setting [4]) was “little activity”. Besides, the EC50 in assay [1] (Arabidopsis suspension cultured cells, pH of media after 20 min, read-out: half-maximal activity in the alkalinization assay) is over 250 nM. The “Pst DC3000 growth in leaves after pre-infiltration” value in assay [2] is on record as “not observed”. For the same molecule, the “competition with the non-substituted 15-mer for receptor binding” value in assay [3] is recorded as “neither of these analogs were able to compete”.

With “VSGNVAARKGKQQTSSGKGGGTN (VSGNVAARKGKQQTSSGKGGGTN) [AtPep7]”, in the assay with AtPEPR1 (setting [5]), the “change in pH” value was “did not increase medium pH” and the “alkalinization of the medium” value was “weaker activity”.

Consider `CC(C)[C@H](NC(=O)[C@H](CCCCN)NC(=O)[C@@H](NC(=O)[C@H](C)NC(=O)[C@@H](N)Cc1ccc(O)c(I)c1)[C@@H](C)O)C(=O)N[C@@H](CCCCN)C(=O)N[C@@H](C)C(=O)N[C@@H](CCCCN)C(=O)N[C@@H](CCC(N)=O)C(=O)N[C@@H](CCCNC(=N)N)C(=O)NCC(=O)N[C@@H](CCCCN)C(=O)N[C@@H](CCC(=O)O)C(=O)N[C@@H](CCCCN)C(=O)N[C@H](C(=O)N[C@@H](CO)C(=O)N[C@@H](CO)C(=O)NCC(=O)N[C@@H](CCCNC(=N)N)C(=O)N1CCC[C@H]1C(=O)NCC(=O)N[C@@H](CCC(N)=O)C(=O)N[C@@H](Cc1c[nH]cn1)C(=O)N[C@@H](CC(N)=O)C(=O)O)C(C)C` [mono-iodo-Tyr-AtPep1] (H-[Tyr(3-I)]ATKVKAKQRGKEKVSSGRPGQHN-OH), for which the “activity in the alkalinization assay” value in assay [1] (setting [4]) is “as fully active as AtPep1”. For the same molecule, the “time to equilibration of binding” value in assay [3] is listed as at most 4 min. Besides, in assay [3] (10^6 cells/assay), the “peptide concentration saturating the sites” value is listed as “about 0.1 nM”. In addition, the Kd (as a rule, the concentration at which binding is half-saturated) in assay [3] (Scatchard analysis of the saturation data, Arabidopsis suspension cultured cells) was 0.25 nM. In assay [3] (saturation kinetics), the “time to maximal binding to Arabidopsis cells” value is at most 10 min.

As to “15-mer RGKEKVSSGRPGQHN with Ser at position 7 replaced by Ala (-ASGR-) [Ser to Ala substitution at position 7]”, the “activity in the alkalinization assay” value in assay [1] (setting [4]) is “little activity”. For the same molecule, the “competition with the non-substituted 15-mer for receptor binding” value in assay [3] is “neither of these analogs were able to compete”.

As for “ITAVLRRRPRPPPYSSGRPGQNN [AtPep6, ITAVLRRRPRPPPYSSGRPGQNN]”, the EC50 at AtPEPR1 was about 0.25 nM. The molecule also yielded a maximal change on AtPEPR1 (setting [5]) of 1.2 pH units.

“GLPGKKNVLKKSRESSGKPGGTN [AtPep5, GLPGKKNVLKKSRESSGKPGGTN]”: the EC50 on AtPEPR1 was about 0.25 nM.

For the molecule SSGRPGQHN, the “activity in the alkalinization assay” value in assay [1] (setting [4]) was “inactive”.

For the molecule “EIKARGKNKTKPTPSSGKGGKHN (EIKARGKNKTKPTPSSGKGGKHN) [AtPep4]”, in the assay with AtPEPR1 (setting [5]), the “change in pH” value is “did not increase medium pH” and the “alkalinization of the medium” value is “weaker activity”.

Regarding “azido-Cys-AtPep1: Cys-AtPep1 coupled through a disulfide bond to the photoaffinity cross-linker APDP (C(APDP″)ATKVKAKQRGKEKVSSGRPGQHN)”, the “activity in the alkalinization assay” value in assay [1] (setting [4]) is given as “as fully active as the native peptide”.
